In US10369153B2, “Pyrrolopyrimidine compounds and uses thereof” (HUTCHISON MEDIPHARMA LIMITED, priority 2010, dated 2019):

What was measured:
[1] = molecular target: Recombinant human JAK1 catalytic domain (Homo sapiens (Human), UniProt P23458); experiment: JAK1 kinase assay (Z'-LYTE, Tyr 6 Peptide); format: biochemical; conditions: 0.3 uM concentration, read-out: inhibition percentage (IR %)
Method: JAK1/2/3 kinase assay are performed in vitro using Kit-Tyr 6 Peptide (Invitrogen, Cat. No. PV4122). TYK2 kinase assay are performed in vitro using Z′-LYTE™ Kinase Assay Kit-Tyr 3 Peptide (Invitrogen, Cat. No. PV3192). […] All compounds are initially tested at 8 different concentrations (1 μM down to 0.0003 μM) using a 1:3 serial dilution scheme.

[2] = system: IL-6-induced STAT3 phosphorylation; experiment: IL-6-induced STAT3 phosphorylation in HepG2 cells; format: cell-based; conditions: Homo sapiens, IL-6 stimulation, read-out: pSTAT3 IC50
Method: For the determination of IL-6-induced STAT3 phosphorylation, HepG2 cells (SIBS) are seeded in 96 well plates at 5.4×10^3 cells per well in Serum Free DMEM media overnight and incubated in the presence or absence of various concentrations of diluted compound for 30 min at 37° C., 5% CO2. Cells were stimulated by adding 10 ng/ml human recombinant IL-6 to each well for 15 minutes at 37° C., 5% CO2. Cells are then fixed in 2% paraformaldehyde for 45 minutes at room temperature and incubated in ice-cold methanol for 30 minutes. After washing in PBS, cells are incubated with rabbit anti-phospho-STAT3 (Y705) (Cell Signaling Technologies, 1:1000 in antibody dilution solution) primary antibody overnight at 4° C. Goat anti-rabbit IgG Alexa 488 (Invitrogen, 1:1,000 dilution in PBS) secondary antibody is added for 90 minutes prior to PBS washes. Cells are counted following incubation in a 7.5 uM propidium iodide, 100 μg/ml RNaseA, PBS solution for 60 minutes in the dark. Plates are read on an Acumen X3 instrument (TPP Labtech).
(§1) Percent inhibition is calculated using the following formula: Inhibition (%)=100−((inhibitor treatment−cell)/(stimulator−cell))×100 […]

[3] = system: IL-3-induced STAT5 phosphorylation; experiment: IL-3-induced STAT5 phosphorylation in TF-1 cells; format: cell-based; conditions: Homo sapiens, IL-3 stimulation, read-out: pSTAT5 IC50
Method: For the determination of IL-3-induced STAT5 phosphorylation, TF-1 cells (ATCC) are plated in 96 well plates at 1×10^4 cells per well in 10% FBS RPMI-1640 media at 37° C., 5% CO2 for 3 hours. Cells were incubated in the presence or absence of various concentrations of diluted compound for 30 min at 37° C., 5% CO2. Cells were stimulated by adding 10 ng/ml human recombinant IL-3 to each well for 30 minutes at 37° C., 5% CO2. Cells are then fixed in 2% paraformaldehyde for 45 minutes at room temperature and incubated in ice-cold methanol for 30 minutes. After washing in PBS, cells are incubated with rabbit anti-phospho-STAT5 (Y694) (Cell Signaling Technologies, 1:1000 in antibody dilution solution) primary antibody overnight at 4° C. Goat anti-rabbit IgG Alexa 488 (Invitrogen, 1:1,000 dilution in PBS) secondary antibody is added for 90 minutes prior to PBS washes. Cells are counted following incubation in a 7.5 uM propidium iodide, 100 μg/ml RNaseA, PBS solution for 60 minutes in the dark. Plates are read on an Acumen X3 instrument (TPP Labtech).
as §1

Sequence of Recombinant human JAK1 catalytic domain (P23458 875-1153): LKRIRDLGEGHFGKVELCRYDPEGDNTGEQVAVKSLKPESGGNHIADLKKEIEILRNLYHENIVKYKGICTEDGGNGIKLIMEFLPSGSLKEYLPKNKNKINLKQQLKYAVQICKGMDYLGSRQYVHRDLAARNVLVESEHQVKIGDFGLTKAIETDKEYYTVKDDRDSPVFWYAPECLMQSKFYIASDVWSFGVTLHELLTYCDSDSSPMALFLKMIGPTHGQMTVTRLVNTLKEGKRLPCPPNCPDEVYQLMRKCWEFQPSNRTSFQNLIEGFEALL

inhibition at 0.3 µM [1]	IC50 [2]	IC50 [3]	SMILES
50 to 100%	0.05 µM	7.55 µM	CN(c1ccc(C(=O)Nc2nccs2)cn1)[C@@H]1CCN(c2ncnc3[nH]ccc23)C1 [Compound 199]
20 to 50%			CN(C(=O)c1ccc(N(C)[C@@H]2CCN(c3ncnc4[nH]ccc34)C2)nc1)[C@@H](CO)c1ccccc1 [Compound 200]
50 to 100%			CN(c1ccc(C(=O)N[C@@H](CO)c2ccccc2)cn1)[C@@H]1CCN(c2ncnc3[nH]ccc23)C1 [Compound 176]
